One may read the DC50 as the concentration at which degradation of the target reaches its halfway point. Read a high DC50 as degradation only at high concentration.

The source of these data is patent US20250313547A1, “CEREBLON LIGANDS AND BIFUNCTIONAL COMPOUNDS COMPRISING THE SAME” (Arvinas Operations, Inc., priority 2017, published 2025).

This assay has as its system androgen receptor (AR). Nature of the assay: AR ELISA assay (androgen receptor degradation). It is filed as cell-based. Particulars: LNCaP and/or VCaP cells, 5 hours drug treatment; for AR Dmax: % degraded. The protocol:
5. AR ELISA Assay Protocol
Compounds were evaluated in this assay in LNCaP and/or VCaP cells utilizing similar protocols. The protocols used with VCaP cells are described below. The androgen receptor ELISA assay was performed using PathScan AR Sandwich ELISA (Cell Signaling Catalog #12850) according to the following assay steps:
VCaP cells were seeded at 40,000 cells/well at a volume of 100 µL/well in VCaP assay medium [Phenol red free RPMI (Gibco Cat #11835-030); 5% Charcoal Stripped (Dextran treated) FBS (Omega Scientific, Cat #FB-04); 1% penstrep (Life Technologies, Gibco Cat #: 10378-016)] in Corning 3904 plates. The cells were incubated for a minimum of 3 days. Cells were dosed with PROTACs diluted in 0.01% DMSO and the drug treatment was allowed for 5 hours.
AR ELISA (Cell Signaling) was performed as follows. 1×Cell Signaling Cell lysis buffer was made (Catalogue #9803; comes with the kit). Media from the treated wells is aspirated, and 100 μL 1×cell lysis buffer/well is added. The cells were placed on a shaker for 10 minutes at 4° C. Twenty microliters of lysate was transferred to 100 μl of Diluent in ELISA plate ([…]-0.075 μg/ml). The lysate-diluent mixture was shaken for 30 minutes at 37° C. Allow mouse AR antibody, anti-mouse antibody, TMB, and STOP solution to come to room temperature. The 1×ELISA buffer included in kit was made and loaded in the reservoir. Media from the plates was discarded, the ELISA plate tapped hard on paper towel, and washed 4×200 μl ELISA wash buffer using a plate washer.
One-hundred (100) μL/well of mouse AR detection Ab was added; the plates were covered and shaken at 37° C. for 1 hour; media was discarded from the plates, the plates were tapped on a paper towel, washed 4× with 200 μL ELISA wash buffer with a plate washer.
One-hundred (100) μL/well of anti-mouse—HRP conjugated Ab (comes with the kit) was added; the plates were covered and shaken at 37° C. for 30 minutes; the TMB reagent was allowed to come to room temperature; the media was discard from the plate, the plates were tapped on paper towel, washed 4× with 200 μL of ELISA wash buffer; the plates were tapped the plates on paper towel. One-hundred (100) μL of TMB was added and the plates shaken for 2 minutes—while watching for color development. One-hundred (100) μL Stop solution was added when light blue color developed. Plates were shaken and read at 450 nm.
A general note: An ELISA detects its analyte on a solid surface through an enzyme-linked reagent.

As for `CC1(C)[C@H](NC(=O)c2ccc(N3CCC(CN4CCN(c5ccc(C(=O)NC6CCC(=O)NC6=O)nc5)CC4)CC3)nn2)C(C)(C)[C@H]1Oc1ccc(C#N)c(Cl)c1` (mixture of isomers) [PROTAC-54, rac-N-((1r,3r)-3-(3-chloro-4-cyanophenoxy)-2,2,4,4-tetramethylcyclobutyl)-6-(4-((4-(6-((2,6-dioxopiperidin-3-yl)carbamoyl)pyridin-3-yl)piperazin-1-yl)methyl)piperidin-1-yl)pyridazine-3-carboxamide], the “AR Dmax” value is recorded as “B (50 < B <= 75)” and the half-maximal degradation concentration (DC50) is 1 to 10 nM.

Take `CC1(C)[C@H](NC(=O)c2ccc(N3CCN(CCCCCCOc4cnn(C5CCC(=O)NC5=O)c(=O)c4)CC3)nc2)C(C)(C)[C@H]1Oc1ccc(C#N)c(Cl)c1` (stereo partly drawn) [PROTAC-29, N-((1r,3r)-3-(3-chloro-4-cyanophenoxy)-2,2,4,4-tetramethylcyclobutyl)-6-(4-(6-((1-(2,6-dioxopiperidin-3-yl)-6-oxo-1,6-dihydropyridazin-4-yl)oxy)hexyl)piperazin-1-yl)nicotinamide]: the “AR Dmax” value was “B (50 < B <= 75)” and the DC50 was below 1 nM.

With `CC1(C)[C@H](NC(=O)c2ccc(N3CCC(CN4CCN(c5ccc6c(c5)C(=O)N(C5CC(=O)NC5=O)C6=O)CC4)CC3)cc2)C(C)(C)[C@H]1Oc1ccc(C#N)c(Cl)c1` (stereo partly drawn) [PROTAC-66, N-((1r,3r)-3-(3-chloro-4-cyanophenoxy)-2,2,4,4-tetramethylcyclobutyl)-4-(4-((4-(2-(2,5-dioxopyrrolidin-3-yl)-1,3-dioxoisoindolin-5-yl)piperazin-1-yl)methyl)piperidin-1-yl)benzamide], the “AR Dmax” value is recorded as “C (C <= 50)” and the DC50 was at least 100 nM.

`N#Cc1ccc(O[C@H]2CC[C@H](NC(=O)c3ccc(N4CCC(CN5CCN(c6cc(C(=O)O)c(C(=O)NC7CCC(=O)NC7=O)cc6F)CC5)CC4)nn3)CC2)cc1Cl` (stereo partly drawn) [PROTAC-57, 5-(4-((1-(6-(((1r,4r)-4-(3-chloro-4-cyanophenoxy)cyclohexyl)carbamoyl)pyridazin-3-yl)piperidin-4-yl)methyl)piperazin-1-yl)-2-((2,6-dioxopiperidin-3-yl)carbamoyl)-4-fluorobenzoic acid]: the “AR Dmax” value is listed as “A (A > 75)” and the half-maximal degradation concentration (DC50) is 1 to 10 nM.

Turning to `CC1(C)[C@H](NC(=O)c2ccc(N3CCC(CN4CCN(c5ccc(C(=O)NC6CCC(=O)NC6=O)nc5)CC4)CC3)nc2)C(C)(C)[C@H]1Oc1ccc(C#N)c(Cl)c1` (stereo partly drawn) [PROTAC-53, 5-(4-((1-(5-(((1r,3r)-3-(3-chloro-4-cyanophenoxy)-2,2,4,4-tetramethylcyclobutyl)carbamoyl)pyridin-2-yl)piperidin-4-yl)methyl)piperazin-1-yl)-N-(2,6-dioxopiperidin-3-yl)picolinamide], the “AR Dmax” value is reported as “A (A > 75)” and the 50% degradation concentration (DC50) was below 1 nM.

As for `CC1(C)[C@H](NC(=O)c2ccc(CCCN3CCC4(CC3)CC(=O)N(C3CCC(=O)NC3=O)C4=O)cc2)C(C)(C)[C@H]1Oc1ccc(C#N)c(Cl)c1` (mixture of isomers) [PROTAC-76, rac-N-((1r,3r)-3-(3-chloro-4-cyanophenoxy)-2,2,4,4-tetramethylcyclobutyl)-4-(3-(2-(2,6-dioxopiperidin-3-yl)-1,3-dioxo-2,8-diazaspiro[4.5]decan-8-yl)propyl)benzamide], the “AR Dmax” value is reported as “C (C <= 50)” and the DC50 is at least 100 nM.

For the compound `CC1(C)[C@H](NC(=O)c2ccc(N3CCN(CCCCCOc4ccc5c(c4)C(=O)N(c4ccc(F)cc4F)C5=O)CC3)nc2)C(C)(C)[C@H]1Oc1ccc(C#N)c(Cl)c1` [PROTAC-41, N-((1r,3r)-3-(3-chloro-4-cyanophenoxy)-2,2,4,4-tetramethylcyclobutyl)-6-(4-(5-((2-(2,4-difluorophenyl)-1,3-dioxoisoindolin-5-yl)oxy)pentyl)piperazin-1-yl)nicotinamide], the “AR Dmax” value is reported as “C (C <= 50)” and the DC50 was at least 100 nM.

Consider `CC1(C)[C@H](NC(=O)c2ccc(N3CCN(CCCCCOc4ccc5c(c4)S(=O)(=O)N(C4CCC(=O)NC4=O)C5=O)CC3)nc2)C(C)(C)[C@H]1Oc1ccc(C#N)c(Cl)c1` (stereo partly drawn) [PROTAC-33, N-((1r,3r)-3-(3-chloro-4-cyanophenoxy)-2,2,4,4-tetramethylcyclobutyl)-6-(4-(5-((2-(2,6-dioxopiperidin-3-yl)-1,1-dioxido-3-oxo-2,3-dihydrobenzo[d]isothiazol-6-yl)oxy)pentyl)piperazin-1-yl)nicotinamide], for which the “AR Dmax” value is reported as “B (50 < B <= 75)” and the DC50 lay in the range of 1 to 10 nM.

Regarding `CC1(C)[C@H](NC(=O)c2ccc(N3CCN(CCCCCOc4ccc5ncc(-n6cc(C#N)c(=O)[nH]c6=O)cc5c4)CC3)nc2)C(C)(C)[C@H]1Oc1ccc(C#N)c(Cl)c1` [PROTAC-80, N-((1r,3r)-3-(3-chloro-4-cyanophenoxy)-2,2,4,4-tetramethylcyclobutyl)-6-(4-(5-((3-(5-cyano-2,4-dioxo-3,4-dihydropyrimidin-1(2H)-yl)quinolin-6-yl)oxy)pentyl)piperazin-1-yl)nicotinamide], the “AR Dmax” value is given as “C (C <= 50)” and the DC50 was at least 100 nM.

For `CC1(C)[C@H](NC(=O)c2cnc(N3CCC(CN4CCN(c5ccc(C(=O)NC6CCC(=O)NC6=O)nc5)CC4)CC3)cn2)C(C)(C)[C@H]1Oc1ccc(C#N)c(Cl)c1` (mixture of isomers) [PROTAC-56, rac-N-((1r,3r)-3-(3-chloro-4-cyanophenoxy)-2,2,4,4-tetramethylcyclobutyl)-5-(4-((4-(6-((2,6-dioxopiperidin-3-yl)carbamoyl)pyridin-3-yl)piperazin-1-yl)methyl)piperidin-1-yl)pyrazine-2-carboxamide], the “AR Dmax” value is reported as “B (50 < B <= 75)” and the DC50 was in the range of 1 to 10 nM.

As to `CC1(C)[C@H](NC(=O)c2ccc(N3CCN(CCOCCOCc4cc5ccccc5c(=O)n4C4CCC(=O)NC4=O)CC3)nc2)C(C)(C)[C@H]1Oc1ccc(C#N)c(Cl)c1` (stereo partly drawn) [PROTAC-46, N-((1r,3r)-3-(3-chloro-4-cyanophenoxy)-2,2,4,4-tetramethylcyclobutyl)-6-(4-(2-(2-((2-(2,6-dioxopiperidin-3-yl)-1-oxo-1,2-dihydroisoquinolin-3-yl)methoxy)ethoxy)ethyl)piperazin-1-yl)nicotinamide], the “AR Dmax” value is reported as “C (C <= 50)” and the 50% degradation concentration (DC50) is at least 100 nM.

Take `CC1(C)[C@H](NC(=O)c2ccc(N3CCC(CCN4CCN(c5cnn(C6CCC(=O)NC6=O)c(=O)c5)CC4)CC3)cc2)C(C)(C)[C@H]1Oc1ccc(C#N)c(Cl)c1` (mixture of isomers) [PROTAC-63, rac-N-((1r,3r)-3-(3-chloro-4-cyanophenoxy)-2,2,4,4-tetramethylcyclobutyl)-4-(4-(2-(4-(1-(2,6-dioxopiperidin-3-yl)-6-oxo-1,6-dihydropyridazin-4-yl)piperazin-1-yl)ethyl)piperidin-1-yl)benzamide]: the “AR Dmax” value is “A (A > 75)” and the 50% degradation concentration (DC50) is below 1 nM.

On to `Cn1c(-c2ccc(N3CCN(CC4CCN(c5ccc(C(=O)N[C@H]6C(C)(C)[C@H](Oc7ccc(C#N)c(Cl)c7)C6(C)C)cc5)CC4)CC3)cc2)nn(C2CCC(=O)NC2=O)c1=O` (stereo partly drawn) [PROTAC-70, N-((1r,3r)-3-(3-chloro-4-cyanophenoxy)-2,2,4,4-tetramethylcyclobutyl)-4-(4-((4-(4-(1-(2,6-dioxopiperidin-3-yl)-4-methyl-5-oxo-4,5-dihydro-1H-1,2,4-triazol-3-yl)phenyl)piperazin-1-yl)methyl)piperidin-1-yl)benzamide], for which the “AR Dmax” value is on record as “A (A > 75)” and the DC50 is below 1 nM.

Regarding `CC1Nc2c(OCCCCCN3CCN(c4ccc(C(=O)N[C@H]5C(C)(C)[C@H](Oc6ccc(C#N)c(Cl)c6)C5(C)C)cn4)CC3)cccc2C(=O)N1C1CCC(=O)NC1=O` (mixture of isomers) [PROTAC-28, rac-N-((1r,3r)-3-(3-chloro-4-cyanophenoxy)-2,2,4,4-tetramethylcyclobutyl)-6-(4-(5-((3-(2,6-dioxopiperidin-3-yl)-2-methyl-4-oxo-1,2,3,4-tetrahydroquinazolin-8-yl)oxy)pentyl)piperazin-1-yl)nicotinamide], the “AR Dmax” value is given as “C (C <= 50)” and the DC50 is at least 100 nM.

Take `CC1(C)[C@H](NC(=O)c2ccc(N3CCC(CN4CCN(c5ccc(C(=O)NC6CCC(=O)NC6=O)nc5)CC4)CC3)cc2)C(C)(C)[C@H]1Oc1ccc(C#N)c(Cl)c1` (mixture of isomers) [PROTAC-55, rac-5-(4-((1-(4-(((1r,3r)-3-(3-chloro-4-cyanophenoxy)-2,2,4,4-tetramethylcyclobutyl)carbamoyl)phenyl)piperidin-4-yl)methyl)piperazin-1-yl)-N-(2,6-dioxopiperidin-3-yl)picolinamide]: the “AR Dmax” value is on record as “B (50 < B <= 75)” and the DC50 is below 1 nM.
